Values quoted from earlier work as cited in patent US20090325155A1, “Aureobasin a synthetase” (priority 2005, published 2009).
Starred links: 1 amine or outer side, 2 acyl side, 3 side chain; linkers in the order of their positions; H or OH if unused. Non-standard residues stand in square brackets, D forms with d. Residues, ends and D or L forms follow the SMILES beside them. ξ: configuration not given here. NMeVal(β-OH) = CN[C@H](C(=O)O)C(C)(C)O; X1 = CCC(C)[C@@H](O[*:1])C(=O)[*:2]; NMeF = CN[C@@H](Cc1ccccc1)C(=O)O; Ile(3ξ) = CCC(C)[C@H](N)C(=O)O; NMeV = CN[C@H](C(=O)O)C(C)C

Legend:
[1] = system: a number of fungi, including yeasts, such as Saccharomyces cerevisiae and Schizosaccharomyces pombe; settings: low concentration toxic against a number of fungi
Aspergillus spp. = settings: third major human pathogen

SMILES: CCC(C)[C@@H]1NC(=O)[C@@H]2CCCN2C(=O)[C@H](Cc2ccccc2)N(C)C(=O)[C@H](Cc2ccccc2)NC(=O)[C@H](C(C)C)N(C)C(=O)[C@@H](C(C)CC)OC(=O)[C@H](C(C)(C)O)N(C)C(=O)[C@H](CC(C)C)NC(=O)[C@H](C(C)C)N(C)C1=O (stereo partly drawn) [AbA, Aureobasidin A] (cyclo(F[NMeF]P[Ile(3ξ)][NMeV]L[NMeVal(β-OH)][X1][NMeV]))
- concentration at which toxic [1]: 0.1 to 0.5 µg/mL
- cidal to fungal pathogen (Candida spp): cidal
- cidal to fungal pathogen (Cryptococcus neoformans): cidal
- toxicity to fungal pathogen (Aspergillus spp.): not toxic
